The test system of test [1] is NC/Nga mouse. The experiment in a line: Atopic dermatitis caused by dust mite extract in NC/Nga mouse, ear thickness. The format is in vivo. The note with it: two kinds of dust mites (D. pteronyssinus, D. farinae), applied to ear dorsal surface 30 minutes before extract, 16 days, FIGS. 2 and 3. The text has this: Next, an animal model (NC/Nga mouse) where a mouse suffers from atopic dermatitis was used to evaluate an inflammation control effects of the K6PC-9P on the atopic dermatitis. The NC/Nga mouse is a mouse that spontaneously suffers from the dermatitis, and has been proven to be an animal model that is the most suitably used to treat atopic dermatitis. Therefore, The NC/Nga mouse has been widely used in the animal model to evaluate substances that are effective to treat the atopic dermatitis. For this experiment, a dust mite that is a representative inducer factor of the atopic dermatitis was applied to a NC/Nga mouse to induce the dermatitis.
The extract of dust mite (Dermatophagoides pteronyssinus, Dermatophagoides farinae) was commercially available from Woongbee Meditech Co. (Korea), and the dust mite extract was dissolved in 10 mg/ml of phosphate buffered saline (PBS) containing 0.5% Tween 20, and then used herein. NC/Nga mice were bred under conventional breeding conditions, and induced to develop into the atopic dermatitis. […] The […] and K6PC-9 were applied onto the ear dorsal surfaces of the mice 30 minutes before the application of the dust mite extract, and the efficiency of the therapeutic agent was evaluated for a level of an intercurrent disease by measuring a thickness of a mouse ear.

Test [2] relates to T lymphocyte. The experiment in a line: Effects on generation of cytokines in ConA-activated spleen T lymphocyte (ELISA). It counts as cell-based. The note with it: Balb/C mouse spleen cells, ConA 1 μg/ml, pre-treated 30 minutes before, 48 hours, 1, and 20 μM, FIG. 1. The procedure: First, in order to determine effects of K6PC-9P and K6PC-9 on generation of cytokines in T lymphocyte, spleen T lymphocyte was separated, and then treated with ConA for its activation. […] Accordingly, substances that increase the expression of the Th1 cytokines or suppress the expression of the Th2 cytokines may be useful to treat the atopic dermatitis. In this experiment, the K6PC-9P and K6PC-9 were evaluated for their control abilities to express the Th1 cytokine, interleukin-2, and the Th2 cytokine, interleukin-4.
The mouse spleen was extracted from a Balb/C mouse to separate splenocyte. The separated splenocyte was plated onto a 96-well plate in a density of 1×10^6 cells/ml. Then, T lymphocyte in the splenocyte was activated with ConA (1 μg/ml). The K6PC-9P and K6PC-9 were pre-treated 30 minutes before the treatment with ConA. 48 hours after the treatment with ConA, culture supernatant was collected, and subject to the ELISA (enzyme-linked immunosorbent assay). The ELISA used an ELISA kit from a R&D system, and performed experiments, as follows. However, the method specified later is described as one example, and the method is identical over the entire procedures, but densities of antibodies and standard sample may be slightly varied depending on the kinds of cytokines to be measured. A capture antibody was diluted to a density of 0.6 μg/ml, and transferred to an ELISA plate by 100 μl, and the plate was sealed and kept overnight at a room temperature. The capture antibody was discarded, and the plate was washed three times with a wash buffer (PBS containing 0.05% Tween 20 (pH 7.4)). 200 μl of a blocking buffer (PBS containing 1% BSA, 5% sucrose and 0.05% NaN) was put into plate wells, kept at a room temperature for 1 hour, and then washed three times with a wash buffer. The collected culture supernatant and the standard sample were prepared using a dilution buffer (TBS containing 0.1% BSA and 0.05% Tween 20), put into plate wells, and then kept at a room temperature for 2 hours. The plate was washed three times with a wash buffer, and a biotinylated detection antibody was diluted with a dilution buffer to a density of 200 ng/ml, and then put into the plate wells. 2 hours after the treatment, the plate was washed three times with a wash buffer, and streptavidin HRP was added to the plate, and then kept for 20 minutes. […] When the colors were suitably developed on the plate, the reaction was stopped with a stop solution (1M H2SO4), and its absorbance was measured at wavelengths of 450 nm and 540 nm. A standard curve was plotted using the standard absorbance obtained by subtracting a 540 nm absorbance value from a 450 nm absorbance value, and a density of cytokines to be measured was calculated using the standard absorbance of the culture supernatant.
(In general: ELISA stands for enzyme-linked immunosorbent assay.)

The subject of test [3] is hairless mouse. The experiment in a line: Suppression of epidermal proliferation in tape-stripping hyperplasia model, epidermal thickness (H&E). The note with it: tape stripping twice per day for 5 days, 1% applied twice per day for 3 days, compared to the control (vehicle). The format is in vivo. The text has this:
Effects on Suppression of Epidermal Proliferation Next, in order to evaluate effects of the K6PC-9P on the skin hyperplasia that is one of the representative skin disorders in the atopic dermatitis, a hyperplasia model where a mouse has overgrown cuticles was established by repeating a tape stripping procedure on a hairless mouse in the Examples according to the present invention. This hyperplasia model was established since the atopic skin has ill-balanced conditions in the epidermal proliferation and differentiation, and particularly has an increased epidermal proliferation level, but has a pattern in which mouse epidermis grows abnormally due to the reduced differentiation level. Accordingly, to recover this ill-balanced condition into a normal state may be considered to be an important point to treat the atopic dermatitis.
Hyperplasia in the back of a hairless mouse was induced by subjecting the tape stripping procedure twice per day for 5 days, and 1% K6PC-9P was applied to the hairless mouse twice per day for 3 days from the third day to fifth day of the induction of the atopic dermatitis. Then, mouse skin tissues were biopsied and fixed into a paraffin wax, and determined for epidermal thickness using a Hematoxylin & Eosin staining method. […]

This is an account of results in patent US20080161272A1, “Ceramide derivatives, method for preparing the same, and therapeutic agent for treating atopic dermatitis comprising the ceramide derivatives” (Neopharm Co., Ltd., priority 2006, published 2008).

On to `CCCCCCCC(=O)C(CCCCCC)C(=O)NCCO` (stereo not shown) [K6PC-9, N-ethanol-2-hexyl-3-oxo-decanamide, reference compound], for which the “increase in the thickness of the mouse ear caused by dust mite extract” value in test [1] is given as “slight suppression effect”. Moreover, in test [2], the “generation of the Th1 cytokine, interleukin-2” value is reported as “does not affect” and the “generation of the Th2 cytokine, interleukin-4” value is “does not affect”.

As to `CCCCCCCC(=O)C(CCCCCC)C(=O)NCCOP(=O)(O)O` (stereo not shown) [K6PC-9P, N-(ethyl dihydrogenphosphate)-2-hexyl-3-oxo-decanamide], the “increase in the thickness of the mouse ear caused by dust mite extract” value in test [1] is “significantly suppresses”. Further, in test [3], the “growth of the mouse epidermis (epidermal thickness)” value is given as “suppressed significantly”. In test [2], the “generation of the Th1 cytokine, interleukin-2” value is given as “increases” and the “generation of the Th2 cytokine, interleukin-4” value is “decreases”.
